Measured values published in patent US11192865B2, “Benzosulfonyl compounds” (Vivace Therapeutics, Inc., priority 2017, dated 2021).

Tested on: 8XTBD luciferase reporter
Assay: YAP Reporter Assay
Format: cell-based
Conditions: Homo sapiens, HEK-293T; HEK293T cells stably transfected with 8XTBD luciferase reporter and pRLTK; 24-hr incubation; starting from 3 μM, 1:3 dilution, 10 points; read-out: Firefly Luciferase IC50
Procedure: HEK293T cells stably transfected with 8XTBD luciferase reporter and pRLTK in 384-well plates were treated with the test compounds, starting from 3 μM (final concentration in assay plate), 1:3 dilution, and 10 points in quadruplicates. Post 24-hr incubation with compounds at 37° C. and 5% CO2, cells were lysed and 8XTBD-driven firefly luciferase and control TK-driven renilla luciferase activities were measured using Promega Dual-Luciferase Reporter Assay System.
Reagents: The reagents used for this study are: DMEM: Invitrogen #11960077, Dual-Glo Luciferase Assay System: Promega-E2980, Puromycin Dihydrochloride: Invitrogen-A1113803, 384-well plate: PerkinElmer-6007480, L-GLUTAMINE: Invitrogen-25030164, Hygromycin B: Invitrogen-10687010, and Penicillin-Streptomycin: Merk-TMS-AB2-C
Media: The media used for this assay were: Culture Medium: DMEM+1 ug/mL puromycin+200 ug/mL hygromycin (with 10% FBS+1 mM L-glutamine); and Assay Medium: DMEM (with 10% FBS+1 mM L-glutamine+1×P/S).
Cell Plating: The appropriate media was warmed at 37° C. by water bath: Culture Medium, Assay Medium, 1* D-PBS, 0.05% trypsin-EDTA. The cells were trypsinized after removing all media, then washed with 1* sterile D-PBS and then with 2 ml 0.05% trypsin-EDTA. The cells were then incubated at RT for one minute. Then 10 ml/75 cm2 flask Assay Medium was added to each flask. Using a 10 ml pipette, the cells were then gently resuspended in the media, until the clumps completely disappeared. The cells were then transferred into 50 ml centrifuge tubes and were centrifuged at 800 rpm for 5 mins. The medium was removed and the cells were resuspended with Assay Medium. An aliquot of cells was used to count the cell density (cells/ml). The cell suspension was then diluted with Assay Medium to a concentration of 6×10^4 cells/ml. 50 ul cells suspension was then plated to 384-well plate (PerkinElmer-6007480), 3×10^3 cells/well and the cells were incubated in an incubator at 37° C., 5% CO2.
Compound Treatment: In the afternoon (incubation of the plate with 3-4 hrs), the test compounds were added by Echo, starting from 3 uM (final concentration in the assay plate), 1:3 dilution, 10 points, quadruplicates. The plate was placed at 37° C., 5% CO2 incubator for 24 hrs.
Detection: The Dual-Glo Luciferase Reagent was prepared by transferring the contents of one bottle of Dual-Glo Luciferase Buffer to one bottle of Dual-Glo Luciferase Substrate to create the Dual-Glo Luciferase Reagent. Mixing was performed by inversion until the substrate was thoroughly dissolved. After mixing, the reagent was aliquoted into 15 ml tubes. In the afternoon (24 hrs post compound treatment), the DMEM+ medium in the 384 well plates were aspirated by Microplate Washer.
Measuring firefly luciferase activity: 20 ul Dual-Glo Luciferase Reagent was added to the 384-well plates. The plates were protected from light to prevent interference with the assay. The plates were shaken for 1 min followed centrifuging plates at 1000 rpm for 30 seconds. After waiting at least 10 minutes, the firefly luminescence was measured by Envision.
Measuring renilla luciferase activity: 20 ul Stop-Glo Reagent was added to the 384-well plates. The plates were shaken for 1 min and then centrifuged at 1000 rpm for 30 seconds. After waiting at least 10 minutes, the renilla luminescence was measured by Envision.
Compound IC50 and maximum inhibition on the firefly luciferase and renilla luciferase activities were reported separately.

Row | IC50 [nM] | Compound
1 | 100 to 1000 | CNS(=O)(=O)c1ccc(NC2CCCCC2)c(-c2nnn(CC(C)C)n2)c1 [Compound 27, 4-(cyclohexylamino)-3-(2-isobutyl-2H-tetrazol-5-yl)-N-methylbenzenesulfonamide]
2 | ≤ 100 | CNS(=O)(=O)c1ccc(NC2CCCCC2)c(-c2nnn(Cc3cccnc3)n2)c1 [Compound 29, 4-(cyclohexylamino)-N-methyl-3-(2-(pyridin-3-ylmethyl)-2H-tetrazol-5-yl)benzenesulfonamide]
3 | ≤ 100 | CNS(=O)(=O)c1ccc(NC2CCCCC2)c(-c2cc(N(C)C)ccn2)c1 [Compound 87, 4-(cyclohexylamino)-3-(4-(dimethylamino)pyridin-2-yl)-N-methylbenzenesulfonamide]
4 | 100 to 1000 | CNS(=O)(=O)c1ccc(NC2CCCCC2)c(-c2nnn(C3CCCC3)n2)c1 [Compound 18, 4-(cyclohexylamino)-3-(2-cyclopentyl-2H-tetrazol-5-yl)-N-methylbenzenesulfonamide]
5 | 1000 to 3000 | CNc1cccc(-c2cc(S(=O)(=O)NC)ccc2NC2CCCCC2)n1 [Compound 85, 4-(cyclohexylamino)-N-methyl-3-(6-(methylamino)pyridin-2-yl)benzenesulfonamide]
6 | > 3000 | CS(=O)(=O)c1ccc(NC2CCCCC2)c(-n2ccnc2)c1 [Compound 11, N-cyclohexyl-2-(1H-imidazol-1-yl)-4-(methylsulfonyl)aniline]
7 | ≤ 100 | CNS(=O)(=O)c1ccc(Nc2ccc(SC(F)(F)F)cc2)c(-c2cn(C)cn2)c1 [Compound 144, N-methyl-3-(1-methylimidazol-4-yl)-4-[4-(trifluoromethylsulfanyl)anilino] benzenesulfonamide]
8 | > 3000 | CNS(=O)(=O)c1ccc(Nc2cccc(OC(F)(F)F)c2)c(-c2nnnn2C)c1 [Compound 100, N-methyl-3-(1-methyl-1H-tetrazol-5-yl)-4-((3-(trifluoromethoxy)phenyl)amino)benzenesulfonamide]
9 | > 3000 | CNS(=O)(=O)c1ccc(NC2CCCCC2)c(-c2cccnc2)c1 [Compound 77, 4-(cyclohexylamino)-N-methyl-3-(pyridin-3-yl)benzenesulfonamide]
10 | 100 to 1000 | CNS(=O)(=O)c1ccc(NC2CCCCC2)c(-c2nnn(C3CN(c4cccnc4)C3)n2)c1 [Compound 70, 4-(cyclohexylamino)-N-methyl-3-(2-(1-(pyridin-3-yl)azetidin-3-yl)-2H-tetrazol-5-yl)benzenesulfonamide]
11 | 100 to 1000 | CNS(=O)(=O)c1ccc(NC2CCCCC2)c(-c2nnn(Cc3ccc(F)cc3)n2)c1 [Compound 41, 4-(cyclohexylamino)-3-(2-(4-fluorobenzyl)-2H-tetrazol-5-yl)-N-methylbenzenesulfonamide]
12 | > 3000 | CNS(=O)(=O)c1ccc(NC2CCCCC2)c(-c2nnn(C3CCN(C(=O)OC(C)C)CC3)n2)c1 [Compound 47, isopropyl 4-(5-(2-(cyclohexylamino)-5-(N-methylsulfamoyl)phenyl)-2H-tetrazol-2-yl)piperidine-1-carboxylate]
13 | ≤ 100 | CNS(=O)(=O)c1ccc(Nc2ccc(C(F)(F)F)cc2)c(-c2nnn(CCO)n2)c1 [Compound 116, 3-(2-(2-hydroxyethyl)-2H-tetrazol-5-yl)-N-methyl-4-((4-(trifluoromethyl)phenyl)amino)benzenesulfonamide]
14 | 100 to 1000 | CNS(=O)(=O)c1ccc(NC2CCCCC2)c(-c2nnn(CCO)n2)c1 [Compound 44, 4-(cyclohexylamino)-3-(2-(2-hydroxyethyl)-2H-tetrazol-5-yl)-N-methylbenzenesulfonamide]
15 | ≤ 100 | CNS(=O)(=O)c1ccc(NC2CCCCC2)c(-c2nnc(C)o2)c1 [Compound 105, 4-(cyclohexylamino)-N-methyl-3-(5-methyl-1,3,4-oxadiazol-2-yl)benzenesulfonamide]
16 | ≤ 100 | CNS(=O)(=O)c1ccc(NC2CCCCC2)c(-c2cn(C(C)C)cn2)c1 [Compound 113, 4-(cyclohexylamino)-3-(1-isopropyl-1H-imidazol-4-yl)-N-methylbenzenesulfonamide]

More lines, now with the values behind:

Row | Compound | IC50 [nM]
17 | CNS(=O)(=O)c1ccc(Nc2cc(F)ccc2F)c(-c2nnnn2C)c1 [Compound 109, 4-((2,5-difluorophenyl)amino)-N-methyl-3-(1-methyl-1H-tetrazol-5-yl)benzenesulfonamide] | > 3000
18 | CNS(=O)(=O)c1ccc(Nc2ccccc2OC(F)(F)F)c(-c2nnn(C)n2)c1 [Compound 102, N-methyl-3-(2-methyl-2H-tetrazol-5-yl)-4-((2-(trifluoromethoxy)phenyl)amino)benzenesulfonamide] | > 3000
19 | CNS(=O)(=O)c1ccc(NC2CCCCC2)c(-c2nnn(C3CCN(c4cccnc4)CC3)n2)c1 [Compound 33, 4-(cyclohexylamino)-N-methyl-3-(2-(1-(pyridin-3-yl)piperidin-4-yl)-2H-tetrazol-5-yl)benzenesulfonamide] | 100 to 1000
20 | CNS(=O)(=O)c1ccc(NC2CCCCC2)c(-c2nnn(C3CCNC3)n2)c1 (stereo not shown) [Compound 35, 4-(cyclohexylamino)-N-methyl-3-(2-(pyrrolidin-3-yl)-2H-tetrazol-5-yl)benzenesulfonamide] | > 3000
21 | CNS(=O)(=O)c1ccc(Nc2ccc(C(F)(F)F)cc2)c(-c2nnnn2C)c1 [Compound 96, N-methyl-3-(1-methyl-1H-tetrazol-5-yl)-4-((4-(trifluoromethyl)phenyl)amino)benzenesulfonamide] | > 3000
22 | CCCCn1nnc(-c2cc(S(=O)(=O)NC)ccc2NC2CCCCC2)n1 [Compound 21, 3-(2-butyltetrazol-5-yl)-4-(cyclohexylamino)-N-methyl-benzenesulfonamide] | ≤ 100
23 | CNS(=O)(=O)c1ccc(Nc2ccc(Cl)c(C(F)(F)F)c2)c(-c2cn(C)cn2)c1 [Compound 147, 4-[4-Chloro-3-(trifluoromethyl)anilino]-N-methyl-3-(1-methylimidazol-4-yl)benzenesulfonamide] | ≤ 100
24 | CNS(=O)(=O)c1ccc(NC2CCCCC2)c(-c2ccncc2)c1 [Compound 65, 4-(cyclohexylamino)-N-methyl-3-(pyridin-4-yl)benzenesulfonamide] | > 3000
25 | CNS(=O)(=O)c1ccc(Nc2cccc(Oc3ccccc3)c2)c(-c2nnn(C)n2)c1 [Compound 134, N-methyl-3-(2-methyltetrazol-5-yl)-4-(3-phenoxyanilino)benzenesulfonamide] | 100 to 1000
26 | CNS(=O)(=O)c1ccc(Nc2cccc(SC(F)(F)F)c2)c(-c2cn(C)cn2)c1 [Compound 141, N-methyl-3-(1-methylimidazol-4-yl)-4-[3-(trifluoromethylsulfanyl)anilino] benzenesulfonamide] | ≤ 100
27 | CS(=O)(=O)c1ccc(NC2CCCCC2)c(-n2ccnn2)c1 [Compound 9, N-cyclohexyl-4-(methylsulfonyl)-2-(1H-1,2,3-triazol-1-yl)aniline] | > 3000
28 | CNS(=O)(=O)c1ccc(NC2CCCCC2)c(-c2nnn(CCF)n2)c1 [Compound 40, 4-(cyclohexylamino)-3-(2-(2-fluoroethyl)-2H-tetrazol-5-yl)-N-methylbenzenesulfonamide] | ≤ 100
29 | CNS(=O)(=O)c1ccc(NC2CCCCC2)c(-c2nnn(CC(F)(F)F)n2)c1 [Compound 39, 4-(cyclohexylamino)-N-methyl-3-(2-(2,2,2-trifluoroethyl)-2H-tetrazol-5-yl)benzenesulfonamide] | 100 to 1000
30 | CNS(=O)(=O)c1ccc(NC2CCCCC2)c(-c2nnn(C3CCN(C(=O)OC(C)(C)C)CC3)n2)c1 [Compound 28, tert-butyl 4-(5-(2-(cyclohexylamino)-5-(N-methylsulfamoyl)phenyl)-2H-tetrazol-2-yl)piperidine-1-carboxylate] | > 3000
31 | CNS(=O)(=O)c1ccc(NC2CCCCC2)c(-c2cn(C3CC3)cn2)c1 [Compound 111, 4-(cyclohexylamino)-3-(1-cyclopropyl-1H-imidazol-4-yl)-N-methylbenzenesulfonamide] | ≤ 100
